Columns and labels:
human TRPV1 [1] = target: T1, human TRPV1 (Homo sapiens (Human), UniProt Q8NER1); experiment: Acid Activation Assay (pH 5.0, intracellular Ca2+, FLIPR); format: cell-based; details: percentage of the maximal pH 5.0-induced response remaining; recombinant HEK293 hTRPV1 cells; maximum concentration tested 37.5 μM
Experimental: Dulbecco's modified Eagle's medium (DMEM) with 4.5 m g/mL D-glucose, fetal bovine serum, L-glutamine, and 2-morpholinoethanesulfonic acid (MES) were purchased from Sigma-Aldrich Co. (St. Louis, Mo.). Dulbecco's phosphate-buffered saline (DPBS) with Ca^2+, Mg^2+, and 1 mg/mL D-glucose (pH 7.4), Geneticin®, 0.25% trypsin-1 mM EDTA, and penicillin-streptomycin were purchased from Invitrogen Corp. (Carlsbad, Calif.). The FLIPR® Calcium 4 assay kit was purchased from Molecular Devices (Sunnyvale, Calif.).
The cDNA for human TRPV1 (hTRPV1) was isolated by reverse transcriptase-polymerase chain reaction (RT-PCR) from human small intestine poly A+ RNA supplied by Clontech (Palo Alto, Calif.) using primers designed surrounding the initiation and termination codons identical to the published sequences (Hayes et al. Pain 2000, 88, 205-215). The resulting cDNA PCR products were subcloned into pCIneo mammalian expression vector (Promega) and fully sequenced using fluorescent dye-terminator reagents (Prism, PerkinElmer Applied Biosystems Division) and a PerkinElmer Applied Biosystems Model 373 DNA sequencer or Model 310 genetic analyzer. Expression plasmids encoding the hTRPV1 cDNA were transfected into HEK293 cells using Lipofectamine®. Forty-eight hours after transfection, the neomycin-resistant cells were selected with growth medium containing 800 μg/mL Geneticin (Life Technologies, formerly Gibco BRL). Surviving individual colonies were isolated and screened for TRPV1 activity. Cells expressing recombinant TRPV1 were maintained at 37° C. in DMEM containing 4 mM L-glutamine, 300 μg/mL G418 (Calbiochem) and 10% fetal bovine serum under a humidified 5% CO2 atmosphere.
The functional activity of compounds at the TRPV1 receptor was determined by measurement of intracellular Ca^2+ levels ([Ca^2+]i) using the Fluorescence Imaging Plate Reader (FLIPR)TETRA®. All compounds were tested over a 12-point one-half-log concentration range with 37.5 μM being the maximum concentration tested. Compound stocks, 10 mM, were prepared in DMSO, and diluted serially across a 384-well plate using a Bravo BenchCel workstation (Agilent Technologies, Santa Clara, Calif.). On the day prior to the experiment, the recombinant HEK293 cells expressing human TRPV1 (hTRPV1) were removed from tissue culture flasks and plated in growth medium into black-walled clear-bottom 384-well Biocoat™ poly-D-lysine assay plates (BD Biosciences, Bedford, Mass.) using a Multidrop® dispenser (ThermoScientific, Waltham, Mass.). On the day of the experiment growth medium was removed, and the no-wash FLIPR® Calcium-4 dye (λEX=470-495 nm, λEM=515-575 nm) was added to each well using the Multidrop® dispenser. The plated cells were incubated for 90-120 min in the dark at 25° C. The test compounds dissolved in DMSO were then added to the plates using an Agilent Bravo workstation (Agilent Technologies Inc., Santa Clara, Calif.). Three minutes later, a pH 5.0 solution was added to each well. Reagents were delivered at a rate of 40 μL/sec, and the final assay volume was 80 μL. Acidic pH solutions were prepared by titration of DPBS/MES with 1 N HCl. The intensity of the fluorescence was captured and digitally transferred to an interfaced PC. The maximum peak measured for the concentration range tested was used to calculate the corresponding peak increase in fluorescence over baseline (relative fluorescence units) which was expressed as the percentage (max % remain) of the maximal pH 5.0-induced response.
Table 1 reports the percentage (max % remain) of the maximal pH 5.0-induced response measured for the compounds tested in the recombinant HEK293 cell assay. Most of the compounds tested inhibited calcium flux only partially following TRPV1 activation by the pH 5.0 solution.

human TRPV1 [2] = target: T1, human TRPV1; experiment: Capsaicin Activation Assay (intracellular Ca2+, FLIPR); format: cell-based; details: recombinant HEK293 cells expressing hTRPV1, 50 nM capsaicin
Experimental: (Logan, Utah). Dulbecco's phosphate-buffered saline (D-PBS) (with 1 mg/mL glucose and 3.6 mg/l Na pyruvate, without phenol red), L-glutamine, hygromycin B, and Lipofectamine® were obtained from Life Technologies (Grand Island, N.Y.). G418 sulfate was obtained from Calbiochem-Novabiochem Corp. (San Diego, Calif.). […] (St. Louis, Mo.). […] The cDNA for human TRPV1 (hTRPV1) was isolated by reverse transcriptase-polymerase chain reaction (RT-PCR) from human small intestine poly A+ RNA supplied by Clontech (Palo Alto, Calif.) using primers designed surrounding the initiation and termination codons identical to the published sequences (Hayes et al. […] The resulting cDNA PCR products were subcloned into pCIneo mammalian expression vector (Promega) and fully sequenced using fluorescent dye-terminator reagents (Prism, PerkinElmer Applied Biosystems Division) and a PerkinElmer Applied Biosystems Model 373 DNA sequencer or Model 310 genetic analyzer. Expression plasmids encoding the hTRPV1 cDNA were transfected into HEK293 cells using Lipofectamine®. Forty-eight hours after transfection, the neomycin-resistant cells were selected with growth medium containing 800 μg/mL Geneticin (Life Technologies, formerly Gibco BRL). Surviving individual colonies were isolated and screened for TRPV1 activity. […] Compound stocks, 10 mM, were prepared in DMSO, and diluted serially across a 384-well plate using a Bravo BenchCel workstation (Agilent Technologies, Santa Clara, Calif.). […] On the day prior to the experiment, the recombinant HEK293 cells expressing human TRPV1 (hTRPV1) were removed from tissue culture flasks and plated in growth medium into black-walled clear-bottom 384-well Biocoat™ poly-D-lysine assay plates (BD Biosciences, Bedford, Mass.) using a Multidrop® dispenser (ThermoScientific, Waltham, Mass.). […] Molecular Devices, Sunnyvale, Calif.) was added to each well using the Multidrop® dispenser. […] Fluorescence readings were made at 1 to 5 second intervals over the course of the experimental run.

T1 sequence (Q8NER1 whole entry): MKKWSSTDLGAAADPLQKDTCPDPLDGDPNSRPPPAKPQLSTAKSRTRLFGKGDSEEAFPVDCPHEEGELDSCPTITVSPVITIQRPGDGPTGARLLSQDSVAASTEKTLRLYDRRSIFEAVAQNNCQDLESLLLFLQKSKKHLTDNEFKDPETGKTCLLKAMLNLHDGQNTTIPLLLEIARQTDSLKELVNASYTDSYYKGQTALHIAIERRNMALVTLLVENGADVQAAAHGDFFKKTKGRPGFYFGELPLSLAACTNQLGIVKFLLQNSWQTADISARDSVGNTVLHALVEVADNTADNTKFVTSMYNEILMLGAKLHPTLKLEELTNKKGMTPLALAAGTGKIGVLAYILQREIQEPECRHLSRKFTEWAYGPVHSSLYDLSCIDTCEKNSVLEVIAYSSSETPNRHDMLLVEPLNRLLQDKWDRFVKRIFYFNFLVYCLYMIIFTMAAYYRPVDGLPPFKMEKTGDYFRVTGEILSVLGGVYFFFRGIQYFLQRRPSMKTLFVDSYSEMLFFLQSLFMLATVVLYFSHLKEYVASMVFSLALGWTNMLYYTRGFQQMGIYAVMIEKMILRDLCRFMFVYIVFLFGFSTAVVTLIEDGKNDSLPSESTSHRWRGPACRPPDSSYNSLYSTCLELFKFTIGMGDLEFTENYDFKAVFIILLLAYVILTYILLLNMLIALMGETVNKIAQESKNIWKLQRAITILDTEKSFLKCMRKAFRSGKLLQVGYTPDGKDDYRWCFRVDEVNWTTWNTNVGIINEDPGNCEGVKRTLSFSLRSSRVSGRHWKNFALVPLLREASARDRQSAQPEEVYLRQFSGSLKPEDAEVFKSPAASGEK

| Compound | human TRPV1 H^+ (max % remain) (human TRPV1 [1]) [%] | IC50 (human TRPV1 [2]) [µM] |
| --- | --- | --- |
| CN1C(=O)NCc2c(NC(=O)N[C@@H]3C[C@](C)(CF)Oc4cc(Cl)ccc43)cccc21 [Example 7, 1-[(2R,4R)-7-chloro-2-(fluoromethyl)-2-methyl-3,4-dihydro-2H-chromen-4-yl]-3-(1-methyl-2-oxo-1,2,3,4-tetrahydroquinazolin-5-yl)urea] | 27 | 0.051 |
| CCN1C(=O)NCc2c(NC(=O)N[C@@H]3CC(C)(C)Oc4ccccc43)cccc21 [Example 8, 1-[(4R)-2,2-dimethyl-3,4-dihydro-2H-chromen-4-yl]-3-(I-ethyl-2-oxo-1,2,3,4-tetrahydroquinazolin-5-yl)urea] | 1 | 0.094 |
| CN1C(=O)NCc2c(NC(=O)N[C@@H]3CC(CF)(CF)Oc4ccccc43)cccc21 [Example 9, 1-[(4R)-2,2-bis(fluoromethyl)-3,4-dihydro-2H-chromen-4-yl]-3-(1-methyl-2-oxo-1,2,3,4-tetrahydroquinazolin-5-yl)urea] | 30 | 0.3 |
| CN1C(=O)NCc2c(NC(=O)N[C@@H]3C[C@](C)(C(F)F)Oc4cc(Cl)ccc43)cccc21 [Example 10, 1-[(2R,4R)-7-chloro-2-(difluoromethyl)-2-methyl-3,4-dihydro-2H-chromen-4-yl]-3-(1-methyl-2-oxo-1,2,3,4-tetrahydroquinazolin-5-yl)urea] | 19 | 0.017 |
| CN1C(=O)NCc2c(NC(=O)N[C@@H]3C[C@@](C)(C(F)F)Oc4cc(Cl)ccc43)cccc21 [Example 11, 1-[(2S,4R)-7-chloro-2-(difluoromethyl)-2-methyl-3,4-dihydro-2H-chromen-4-yl]-3-(1-methyl-2-oxo-1,2,3,4-tetrahydroquinazolin-5-yl)urea] | 32 | 0.021 |
| CN1C(=O)NCc2c(NC(=O)N[C@@H]3C[C@](C)(C(F)F)Oc4ccccc43)cccc21 [Example 12, 1-[(2R,4R)-2-(difluoromethyl)-2-methyl-3,4-dihydro-2H-chromen-4-yl]-3-(1-methyl-2-oxo-1,2,3,4-tetrahydroquinazolin-5-yl)urea] | 28 | 0.032 |
| CN1C(=O)NCc2c(NC(=O)N[C@@H]3C[C@@](C)(CF)Oc4cc(Cl)ccc43)cccc21 [Example 14, 1-[(2S,4R)-7-chloro-2-(fluoromethyl)-2-methyl-3,4-dihydro-2H-chromen-4-yl]-3-(1-methyl-2-oxo-1,2,3,4-tetrahydroquinazolin-5-yl)urea] | 23 | 0.063 |
| CN1C(=O)NCc2c(NC(=O)N[C@@H]3CC4(CCCC4)Oc4ccccc43)cccc21 [Example 15, 1-[(4R)-3,4-dihydrospiro[chromene-2,1′-cyclopentan]-4-yl]-3-(1-methyl-2-oxo-1,2,3,4-tetrahydroquinazolin-5-yl)urea] | 40 | 0.021 |

Continued, values first:

| human TRPV1 H^+ (max % remain) (human TRPV1 [1]) [%] | IC50 (human TRPV1 [2]) [µM] | Compound |
| --- | --- | --- |
| 53 | 0.1 | CN1Cc2ccc(NC(=O)N[C@@H]3CC(C)(C)Oc4c3cccc4C(F)(F)F)cc2NC1=O [Example 16, 1-[(4R)-2,2-dimethyl-8-(trifluoromethyl)-3,4-dihydro-2H-chromen-4-yl]-3-(3-methyl-2-oxo-1,2,3,4-tetrahydroquinazolin-7-yl)urea] |
| 34 | 0.058 | Cn1c(=O)ccc2c(NC(=O)N[C@@H]3CC(CF)(CF)Oc4cc(Cl)ccc43)cccc21 [Example 20, 1-[(4R)-7-chloro-2,2-bis(fluoromethyl)-3,4-dihydro-2H-chromen-4-yl]-3-(1-methyl-2-oxo-1,2-dihydroquinolin-5-yl)urea] |
| 48 | 0.026 | Cn1c(=O)ccc2c(NC(=O)N[C@@H]3CC(CF)(CF)Oc4c3ccc(Cl)c4F)cccc21 [Example 21, 1-[(4R)-7-chloro-8-fluoro-2,2-bis(fluoromethyl)-3,4-dihydro-2H-chromen-4-yl]-3-(1-methyl-2-oxo-1,2-dihydroquinolin-5-yl)urea] |
| 47 | 0.015 | Cn1c(=O)ccc2c(NC(=O)N[C@@H]3CC(C)(C)Oc4c3ccc(F)c4Cl)cccc21 [Example 22, 1-[(4R)-8-chloro-7-fluoro-2,2-dimethyl-3,4-dihydro-2H-chromen-4-yl]-3-(1-methyl-2-oxo-1,2-dihydroquinolin-5-yl)urea] |
| 50 | 0.016 | Cn1c(=O)ccc2c(NC(=O)N[C@@H]3CC(C)(C)Oc4cc(Cl)ccc43)cccc21 [Example 23, 1-[(4R)-7-chloro-2,2-dimethyl-3,4-dihydro-2H-chromen-4-yl]-3-(1-methyl-2-oxo-1,2-dihydroquinolin-5-yl)urea] |
| 65 | 0.018 | Cn1c(=O)ccc2c(NC(=O)N[C@@H]3C[C@@](C)(C(F)(F)F)Oc4ccccc43)cccc21 [Example 25, 1-(1-methyl-2-oxo-1,2-dihydroquinolin-5-yl)-3-[(2S,4R)-2-methyl-2-(trifluoromethyl)-3,4-dihydro-2H-chromen-4-yl]urea] |
| 54 | 0.025 | Cn1c(=O)ccc2c(NC(=O)N[C@@H]3C[C@@](C)(C(F)F)Oc4ccccc43)cccc21 [Example 26, 1-[(2S,4R)-2-(difluoromethyl)-2-methyl-3,4-dihydro-2H-chromen-4-yl]-3-(1-methyl-2-oxo-1,2-dihydroquinolin-5-yl)urea] |
| 93 | 0.1 | O=C1COc2ccc(NC(=O)N[C@@H]3CC(CF)(CF)Oc4cc(Cl)ccc43)cc2N1 [Example 29, 1-[(4R)-7-chloro-2,2-bis(fluoromethyl)-3,4-dihydro-2H-chromen-4-yl]-3-(3-oxo-3,4-dihydro-2H-1,4-benzoxazin-6-yl)urea] |
| 38 | 0.022 | Cn1c(=O)ccc2c(NC(=O)N[C@@H]3C[C@](C)(CF)Oc4cc(Cl)ccc43)cccc21 [Example 40, 1-[(2R,4R)-7-chloro-2-(fluoromethyl)-2-methyl-3,4-dihydro-2H-chromen-4-yl]-3-(1-methyl-2-oxo-1,2-dihydroquinolin-5-yl)urea] |

Source: US8969325B2, “TRPV1 antagonists” (AbbVie Inc., priority 2011, dated 2015)
